The text below walks through data of paper PMC12703733, “Probing Guanidino Pendant or Bridged Groups in Cyclic Antimicrobial Peptides Derived from Temporin L: A Strategy to Improve Efficacy against Gram-Negative Bacteria” (Journal of Medicinal Chemistry, 2025).

≈ marks a conversion by molar mass, not a printed value. Bridge positions count the residues as written; N and C are the ends. Square brackets hold non-standard residues; d marks the D form. Peptide text beside a SMILES is read from it.

Data set [1] relates to P. aeruginosa ATCC 27853. The format is cell-based. Here is the method:
The ability of peptides to alter the bacterial membrane permeability of planktonic cells of S. aureus ATCC 25923 and P. aeruginosa ATCC 27853 was determined by the Sytox Green assay. Approximately 1 × 10^6 cells in 100 μL of PBS were combined with 1 μM Sytox Green in the dark for 5 min. The fluorescence intensity was monitored using a microplate reader (Infinite M200, Tecan), with excitation and emission at λ = 485 and 535 nm, respectively. Peptides were added (time = 0) at three different concentrations (i.e., 3.12, 6.25, and 12.5 μM). Increase in the fluorescence intensity is due to the binding of the dye to intracellular nucleic acids. Controls consisted of cells that were not exposed to the peptides. The values correspond to one representative experiment out of three independent experiments.

In the next data set the test system is S. aureus ATCC 25923. The experiment in a line: microbe, parasite or virus in culture. The format is cell-based. The settings on record: ATCC 25923. A digest of the protocol:
(§1)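 Mid-log bacteria were diluted in Mueller Hinton broth to 2 × 10^6 cell/mL, exposed to compound and incubated at 37 °C. MIC values came from three identical readings across four independent experiments.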

The test system of another data set is E. coli D21. The data set can be described thus: microbe, parasite or virus in culture. The format is cell-based. The settings on record: D21. The gist of the method:
as §1

The subject of the next data set is E. faecalis ATCC 29212. The experiment in a line: microbe, parasite or virus in culture. The format is cell-based. The settings on record: ATCC 29212. A digest of the protocol: as §1
Data set [2] concerns P. aeruginosa ATCC 27853. The data set can be described thus: microbe, parasite or virus in culture. The format is cell-based. The settings on record: ATCC 27853. The gist of the method: as §1
A further data set concerns B. megaterium BM11. The experiment in a line: microbe, parasite or virus in culture. The format is cell-based. The settings on record: BM11. A digest of the protocol: as §1
The test system of the next data set is E. coli ATCC 25922. The data set can be described thus: microbe, parasite or virus in culture. To be noted: ATCC 25922. The format is cell-based. The gist of the method:
as §1

In data set [3] the test system is S. epidermidis ATCC 12228. The experiment in a line: microbe, parasite or virus in culture. The format is cell-based. The settings on record: ATCC 12228. A digest of the protocol: as §1
The next data set deals with S. agalactiae ATCC 27591. The data set can be described thus: microbe, parasite or virus in culture. The settings on record: ATCC 27591. The format is cell-based. The gist of the method: as §1
The test system of a further data set is A. baumannii ATCC 19606. The data set can be described thus: microbe, parasite or virus in culture. The format is cell-based. To be noted: ATCC 19606. A digest of the protocol:
as §1

The next data set relates to P. aeruginosa PAO1. The data set can be described thus: microbe, parasite or virus in culture. The format is cell-based. The settings on record: PAO1. A digest of the protocol: as §1
Data set [4] is described as follows: Circular dichroism in water (BeStSel). The format is physicochemical. To be noted: predicted from CD spectra in H2O using BeStSel. Here is the method: The secondary structure of each peptide was studied in solution and in small unilamellar vesicles (SUVs) mimicking Gram-positive and Gram-negative membranes performing CD analysis. The CD spectrum for each peptide in solution was recorded at 150 μM, using the quartz cells of 0.1 cm path length with a Jasco J-1500 CD Spectrometer at 25 °C. SUVs at the concentration of 150 μM (P/L = 1) and […] (P/L = 0.4) were prepared as reported: the lipid film was hydrated with water for 1h and then sonicated for 30 min. CD spectra were recorded at the peptide/lipid ratio of 1:1 both in the presence with SUVs mimicking Gram-positive and Gram-negative membranes. CD spectra were recorded at 25 °C on a in a 0.1 cm quartz cell using three consecutive scans from 260 to 190 nm, 3 nm bandwidth, a time constant of 16 s, and a scan rate of 10 nm/min.

Data set [5] relates to Gram-negative bacteria tested. The experiment in a line: MIC panel, Gram-negative strains (geometric mean). The format is cell-based. The settings on record: geometric mean of the MICs against Gram-negative bacteria tested. How it is done: The antimicrobial efficacy of the TLcyc analogues was assessed against a representative panel of Gram-positive and Gram-negative bacterial strains, by determining their minimal inhibitory concentrations (MIC), as summarized in Table . To provide an integrated measure of antimicrobial potency, we calculated the geometric mean (GM) of MIC values across all strains (GMall), as well as separately for Gram-positive (GMGram+) and Gram-negative (GMGram–) bacteria.
Bacterial strains used in this study were the Gram-positive S. aureus ATCC 25923, S. epidermidis ATCC 12228, B. megaterium BM11, S. agalactiae ATCC 27591, E. faecalis ATCC 29212 and the Gram-negative E. coli ATCC 25922, P. aeruginosa ATCC 27853, A. baumannii ATCC 19606, E. coli D21 and P. aeruginosa PAO1. […] Bacterial cells in the mid log phase were diluted in Muller Hinton (MH) at a concentration of 2 × 10^6 cell/mL. Aliquots of 50 μL of this bacterial suspension were added to 50 μL of MH containing serial 2-fold dilutions of the peptides (from 100 to 0.19 μM) in the wells a 96-well plate. Ciprofloxacin was used as antibiotic control. The plate was then incubated at 37 °C. MICs were obtained from three identical readings of four independent experiments.

With `CC[C@H](C)[C@H](NC(=O)[C@H](CCCNC(=N)N)NC(=O)[C@H]1CCC(=O)NCCCC[C@H](NC(=O)[C@H](Cc2ccccc2)NC(=O)[C@H](Cc2c[nH]c3ccccc23)NC(=O)[C@@H]2CCCN2C(=O)[C@@H](NC(=O)[C@@H](N)Cc2ccccc2)C(C)C)C(=O)N[C@@H](CCCCN)C(=O)N[C@@H](Cc2ccccc2)C(=O)N[C@H](CC(C)C)C(=O)N1)C(=O)N[C@@H](CC(C)C)C(N)=O` [Peptide 2, FVPWF[KKFle]RIL] (H-FVPWFKKF[dL][dE]RIL-NH2; lactam 6-10), the “membrane permeabilization, Sytox Green fluorescence (in words)” value in the data set with P. aeruginosa ATCC 27853 [1] was “lower intensity”. Also, the MIC in the data set with S. aureus ATCC 25923 turned out to be 12.5 µM (≈ 21.3 µg/mL); with E. coli D21, 12.5 µM (≈ 21.3 µg/mL); with E. faecalis ATCC 29212, 25 µM (≈ 42.6 µg/mL); against P. aeruginosa ATCC 27853 [2] it was 50 µM (≈ 85.2 µg/mL); with B. megaterium BM11, 0.78 µM (≈ 1.33 µg/mL); with E. coli ATCC 25922 it was 6.25 µM (≈ 10.7 µg/mL). Besides, the MIC in data set [3] is 3.12 µM (≈ 5.32 µg/mL); in the data set on S. agalactiae ATCC 27591, 3.12 µM (≈ 5.32 µg/mL); with A. baumannii ATCC 19606, 6.25 µM (≈ 10.7 µg/mL); in the data set with P. aeruginosa PAO1 it was 50 µM (≈ 85.2 µg/mL). In [4], the “Content in water (%) random” value is on record as 55%. The “Content in water (%) α-helix” value in [4] is 7%. In [4], the “Content in water (%) β-strand” value is listed as 38%. Further, the “geometric mean GMGram–” value in data set [5] turned out to be 16.4 µM.
